A word on the Ki: it is a measure of affinity in units of concentration, obtained from inhibition or displacement. Low readings indicate tighter binding, high ones weaker binding.

This experiment has as its target T1, SARS-CoV-2 M^pro (main protease) (Severe acute respiratory syndrome coronavirus 2, UniProt P0DTD1).
T1 construct: gene rep
Description: FRET peptide cleavage assay, Morrison fit. The class given is biochemical.

In turn, `O=c1c(O)c(-c2ccc(O)c(O)c2)oc2cc(O)ccc12` [Fisetin] returned a Ki of 0.0418 ± 0.0021 µM.
